From patent publication US6852708B2, “Use of hyaluronic acid and forms to prevent the narrowing of the vascular walls” (Jagotec AG, priority 1991, dated 2005)
“And” between values parts separate entries of the source, which are not always exact repeats. Equal values may be shown once.

Columns and labels:
injured carotid arteries = assay: Balloon angioplasty in rabbits perfused with hyaluronan, carotid artery histology; assay type: in vivo, rabbit; conditions: perfused with hyaluronan 5 mg/ml just prior to injury; for adherence / accumulation of white cells on the endothelium of the injured carotid artery: 2, 24, 48 hours after injury
Description: 10 rabbits were anesthetized and balloon angioplasty was performed on them. The rabbits were perfused with hyaluronan (5 mg/ml) or buffer alone and allowed their recover. […] Sections were stained with hematoxylin or with anti RHAMM antibodies. 10 sections of each treatment were analyzed.

[1] = system: balloon angioplasty injured carotid artery; assay: Balloon angioplasty injury in cholesterol-fed rabbits, hyaluronan injections administered subcutaneously; assay type: in vivo, rabbit
Description: Tests were conducted with cholesterol-fed rabbits and the following was found. The tests were of the same nature except that the injections of the hyaluronan (sodium hyaluronate) were administered subcutaneously.

[2] = system: balloon catheter injured common carotid artery; assay: Balloon catheter injury of the common carotid artery in cholesterol-fed rabbits, hyaluronan i.v. bolus then daily s.c.; assay type: in vivo, New Zealand White rabbit; conditions: for reduction in mean intimal macrophage content: versus cholesterol-diet alone, p<0.02; for reduction of the absolute neo-intimal response to injury (absolute size of the neo-intima): versus cholesterol-fed group given saline, p<0.05, 15 mg/kg/day
Description: Juvenile New Zealand White rabbits (3 to 6 months old), weighing approximately 2.5 kg were obtained from Rosemead Rabbit Co. Essex, UK) and housed in the Biological Services Unit of St. bartholomew's Hospital Medical College, London.
After one week on a commercial rabbit chow diet (Scientific Diet Services, Essex, UK) the animals were started on a 2% cholesterol diet (Scientific Diet Services, Essex, UK). Water was allowed ad libitum.
One week after starting the above diet, animals were anaesthetized with intramuscular xylazine [Rompun (Bayer, Suffolk, UK); 40 mg/kg] and ketamine [Vetalar (Parke-Davis, UK); 10 mg/kg]. The left carotid bifurcation was exposed through a paramedian incision, and the external carotid artery prepared for balloon injury. The animals were injected with a bolus of sterile sodium hyaluronate (15 mg/kg) referred to at page 15, line 31 to page 16 line 1 (Hyal Pharmaceutical Corporation, Ontario, Canada) or saline via a marginal ear vein. Endothelium was then removed from the entire left common carotid artery by the passage of an inflated 2F French Fogarty Embolectomy catheter as previously described (Ferns et al 1992). The catheter was then withdrawn, the external carotid tied off, and the skin and deep fascia closed with chromic catgut and discontinuous 3-O silk. The validity of the procedure for endothelial cell denudation was assessed by scanning electron microscopy of a number of carotids from animals killed immediately post-operatively. Animals received a further subcutaneous injection of hyaluronic acid (15 mg/kg) or saline post-operatively, and daily until sacrifice.
Blood for serum cholesterol was collected from each animal before the start of each experimental diet, peri-operatively and at the time of sacrifice. Samples were separated by centrifugation and stored at −20° C. prior to analysis.
Two weeks after carotid de-endothelialization, the animals were sedated with intramuscular xylazine and ketamine and given an intravenous injection of 2% Evans blue in isotonic phosphate-buffered saline. Five minutes later, an abdominal incision was made to access the abdominal aorta for insertion of a cannula connected to a perfusion apparatus, and both jugular veins exposed for perfusion run-off. The animals were then killed by an overdose of anaesthetic and perfused with buffered saline at a rate of 100 ml/minute/kg body weight. When the run-off was clear, the saline was replaced with 4% paraformaldehyde in isotonic PBS at the same flow rate. Perfusion was continued for 15 minutes. After fixation in situ, the denuded and contralateral carotids were dissected free and cleaned of adherent fat and fascia. The segments were immediately rinsed in PBS and placed in fresh 4% paraformaldehyde overnight for paraffin embedding. Some segments were placed into 2.5% glutaraldehyde for subsequent processing for electron microscopy.
Five micron sections were taken from the blue (de-endothelialised) segments of carotid artery, for haematoxylin and eosin (H&E) staining. Adjacent sections were cut for elastin staining using Verhoeff-Van Geisen (VVG) stain, and immunostaining using monoclonal antibodies directed against rabbit alveolar macrophages (RAM-11) and smooth muscle cell actin (HHF-35), as described by Tsukada et al. (1986).
Serum cholesterol levels were measured by the CHOD-POD enzymatic-colorimetric method using a Cholesterol C-system kit (Boehringer Corp., Lewes, UK) and a Vitalab 100 autoanalyzer with Precipath U and Precinorm U (Boehringer Corp., Lewes, UK) quality control material.
The intimal and medial thickness of each segment was measured using a Zeiss Axioskop microscope equipped with a X10 Achroplan objective, a digitizing pad and an IBM 55SX PC containing a VIDS V interface card and VIDS V software. Measurements were performed in duplicate on three mid-carotid VVG stained sections. […]

Human neutrophils = assay: Chemotaxis of neutrophils to IL-8; assay type: cell-based; conditions: 100 ng/mL IL-8; peptide 2 μg/mL; FIG. 10
Description: (§1) The HA-binding region of RHAMM consists of two 10 amino acid domains located close to the carboxy terminus of the protein^15. A peptide mimicking Domain I (amino acides^401-411)—[…]—and a scrambled peptide consisting of the same amino acids arranged in a random manner-———-were synthesized at the Manitoba Institute of Cell Biology. Both peptides were used at a final concentration of 2 μg/mL in locomotion assays.
Human neutrophils were obtained from peripheral blood samples of normal volunteers and mixed in ACD solution (0.085) M trisodium citrate, 0.065 M citric acid, 2% Dextrose) to prevent clotting. 5% Dextran was added and the separated plasma and white blood cells were removed. The cells were washed twice in PBS, pH 7.2 and a Ficoll gradient was used to separate the lymphocytes. The isolated neutrophils were then washed and resuspended in PBS. […]
(§2) Chemotaxis was stimulated using either bacterial endotoxin-activated mouse serum (AS), prepared according to Stevenson et al.^18 for macrophage cell lines, or 100 ng/mL interleukin-8 (IL-8) for meutrophils. […] The number of displaced cells was quantified by the addition of 3-(4.5-dimethylthiazol-2-yl)-2.5-[…] tetrazolium bromide (MTT) to a final concentration of 250 μg/mL that was incubated at 37° C. for 4 hours. […] The plate was analyzed within 2 hours on a microtiter plate ELISA reader with a filter of 540 nm. […]

[3] = system: macrophage cell line WEHI-3; assay: Chemotaxis of macrophage cell line WEHI-3 to endotoxin-activated mouse serum (complement); assay type: cell-based; conditions: peptide 2 μg/mL; FIG. 11
Description: as §1
(§3) The macrophage cell lines S1 and WEHI-3 were used to analyze the effect of antibodies and synthetic peptide on macrophage chemotaxis to endotoxin-activated mouse serum (AS). These cell lines were also maintained in DME with 10% FCS and 20 mM Hepes buffer, pH 7.2 at 37° C. and 5% CO2 in air.
as §2, with “meutrophils. Heat-inactivated serum (56° C. for 20 minutes) or medium served as negative controls respectively.” for “meutrophils.”

[4] = system: smooth muscle cells isolated from bovine aorta; assay: Smooth muscle cell migration after wounding of monolayers (timelapse cinemicrography); assay type: cell-based
Description: as §1
Smooth muscles cells were isolated from bovine aorta as described previously for rate aorta^17 and were maintained in Dulbecco's Modified Eagles medium (DME) supplemented with 10% fetal calf serum (FCS) and 20 mM Hepes buffer, pH 7.2 at 37° C. and 5% CO2 in air. All experiments were performed using defined medium [DM, Dulbecco's Modified Eagles medium with 20 mM HEPES buffer, pH 7.2, 0.5 U/mL insulin (beef and pork zinc suspension, Novo Laboratories Ltd., Willowdale, Ontario) and 4 μg/mL transferrin (Sigma Chemical Co., St. Louis, Mo.)], and the culture medium was replaced 24 hours before filming. […]
Injured cell monlayers were monitored for motility using an 1 M 35 Zeiss inverted microscope to which a video camera (Hamamatsu CCD, Inc., Japan) was attached. […] This program allows quantification of nuclear displacement from a sequence of digitalized images. The motility of thirty cells in each experiment was followed for a period of 24 hours with mean velocities calculated every hour.

macrophage cell line S1 = assay: Chemotaxis of macrophage cell line S1 to endotoxin-activated mouse serum (complement); assay type: cell-based; conditions: peptide 2 μg/mL; FIG. 11
Description: as §1, §3
as §2, with “meutrophils. Heat-inactivated serum (56° C. for 20 minutes) or medium served as negative controls respectively.” for “meutrophils.”

[5] = HYAL + CHOL group, n=15, s.c. injections
[6] = MEAN of HYAL + CHOL group, N=15, 2 weeks after injury
[7] = hyaluronan-treated group, 2 weeks after injury
[8] = individual animals of the HYAL + CHOL group, 2 weeks after injury
[9] = mean ± SEM, n=15, Hyal 15 mg/kg/d

sodium hyaluronate
endothelial cell layer of the injured carotid artery (histology) (injured carotid arteries): intact endothelial cell layer | adherence / accumulation of white cells on the endothelium of the injured carotid artery (injured carotid arteries; listed as Hyaluronan): abolished | adherence / accumulation of white cells on the endothelium of the injured carotid artery (injured carotid arteries; listed as hyaluronan): do not exhibit accumulations of white cells | mean I:M ratio [1, 5]: 0.591 | mean absolute intimal thickness [1, 5]: 95.7 μm | neo-intimal thickness following balloon angioplasty injury ([1]; cholesterol-fed rabbits, FIGS. 20 and 21): significantly inhibited | intimal thickening in the cholesterol-fed rabbits ([2]; 15 mg/kg i.v. immediately pre-operatively, then daily s.c. for fourteen days): significantly inhibited | neo-intimal macrophage content in the cholesterol-fed rabbits ([2]; 15 mg/kg/d, 2 weeks after injury): reduced | mean medial thickness compared with the control animals ([2]; 2 weeks after injury, p>0.05): did not differ significantly | Body Weight, Sacrifice ([2]; MEAN of HYAL + CHOL group, N=15): 2.64 kg | I/M [2, 6]: 0.59 | INTIMA [2, 6]: 65.79 microns | Intimal Macrophage Content (%) [2, 6]: 3.22% | MEDIA [2, 6]: 105.01 microns | Mean weight, Sacrifice ([2]; group mean ± SEM, n=15, at sacrifice, Hyal 15 mg/kg/d): 2.64 ± 0.09 kg | intima: media ratio [2, 7]: 0.59±0.011 | mean intimal macrophage content [2, 7]: 3.22±1.05% | I/M [2, 8]: 0.68 and 1.10 and 0.21 and 0.42 and 0.46 and 0.30 and 1.03 and 0.66 and 0.24 and 1.61 and 0.81 and 0.10 and 0.72 and 0.08 and 0.45 | INTIMA [2, 8]: 82.60 microns and 212.00 microns and 22.00 microns and 55.62 microns and 42.10 microns and 17.44 microns and 76.40 microns and 48.23 microns and 26.63 microns and 187.50 microns and 112.22 microns and 8.44 microns and 84.87 microns and 8.38 microns and 2.35 microns | Intimal Macrophage Content (%) [2, 8]: 6.90% and 13.20% and 3.10% and 5.50% and 0.17% and 1.10% and 0.40% (2×) and 0.00% (2×) and 1.70% and 7.80% and 0.50% and 4.70% and 2.90% | MEDIA [2, 8]: 118.90 microns and 200.00 microns and 109.00 microns and 139.14 microns and 91.10 microns and 78.28 microns and 74.70 microns and 74.65 microns and 111.50 microns and 118.72 microns and 143.77 microns and 83.43 microns and 120.62 microns and 105.57 microns and 5.81 microns | Body Weight, Sacrifice ([2]; individual animals of the HYAL + CHOL group, at sacrifice): 2.60 kg (2×) and 2.89 kg and 2.91 kg and 3.40 kg and 2.88 kg and 2.81 kg (2×) and 2.25 kg and 2.74 kg and 2.35 kg and 2.15 kg and 2.40 kg and 2.38 kg and 2.42 kg | Body Weight, Start ([2]; individual animals of the HYAL + CHOL group, before treatment): 2.25 kg | Mean Intimal thickness 2 weeks after injury [2, 9]: 0.068 ± 0.016 mm | Mean intima/media ratio 2 weeks after injury [2, 9]: 0.59 ± 0.11 | Mean intimal macrophage content 2 weeks after injury (% of total cell number) [2, 9]: 3.22 ± 0.98% | gain in body weight over the three week experimental period ([2]; rabbit, in vivo): approximately 30% | reduction in mean intimal macrophage content ([2]; 2 weeks after injury, listed as Hyaluronan): 62% | reduction in mean intimal macrophage content ([2]; 2 weeks after injury, listed as hyaluronan): approximately 62% | reduction of the intima: media ratio ([2]; versus cholesterol-fed control group, 2 weeks after injury, 15 mg/kg/d): 35% | reduction of the absolute neo-intimal response to injury (absolute size of the neo-intima) ([2]; 2 weeks after injury, 15 mg/kg/d, listed as Hyaluronan): 42% | reduction of the absolute neo-intimal response to injury (absolute size of the neo-intima) ([2]; 2 weeks after injury, 15 mg/kg/d, listed as hyaluronan): approximately 46%

YKQKIKHVVKLK [peptide aa^401-411]
chemotaxis of neutrophils to IL-8 (Human neutrophils): significantly inhibited | chemotaxis of WEHI-3 to endotoxin-activated mouse serum [3]: inhibited | locomotion of smooth muscle cells responding to injury ([4]; peptides 100 ng/plate, FIG. 6): inhibits | rate of translocation of smooth muscle cells following wounding of monolayers ([4]; peptides 2 μg/mL, 5 hours after wounding, FIG. 12): significantly reduced | chemotaxis of S1 to endotoxin-activated mouse serum (macrophage cell line S1): inhibited
